According to the supplement of paper PMC10627819:
In brackets after ≈: the same amount, converted by molar mass.

Experiments:
S. aureus Newman [1] = test: fitness (endpoint OD595 vs no drug) (fraction); higher = more growth
Method in brief: (§1)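 Bacterial growth was followed in 384-well plates seeded at OD595 0.01, with 30 µl per well, or 55 µl for S. pneumoniae, in TSB, LB Lennox or CY at 37 °C. OD595 was read every 30 min for 14 h, and each reading had the first reading subtracted as background. Fitness is the background-corrected optical density at entry into stationary phase divided by the robust mean of the no-drug control wells. This ratio is capped at 1.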

S. pneumoniae D39V [2] = test: as above
Method in brief: as §1

S. aureus DSM 20231 [3] = test: as above
Method in brief: as §1

B. subtilis 168 [4] = test: as above
Method in brief: as §1

S. aureus Newman [5] = test: Bliss interaction score (quartile over a dose matrix) (fitness difference); higher = more antagonism (negative = synergy)
Method in brief: (§2)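 Fitness is OD595 at stationary-phase entry relative to the plate's robust no-drug mean, capped at 1. Single-drug fitness was inferred from combinations. The Bliss score is observed minus product-expected fitness, summarised by quartiles over technical, biological and donor/recipient replicates.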

S. pneumoniae D39V [6] = test: as above
Method in brief: as §2

S. aureus DSM 20231 [7] = test: as above
Method in brief: as §2

B. subtilis 168 [8] = test: as above
Method in brief: as §2

S. aureus Newman [9] = test system: S. aureus Newman
S. pneumoniae D39V [10] = test system: S. pneumoniae D39V
S. aureus DSM 20231 [11] = test system: S. aureus DSM 20231
B. subtilis 168 [12] = test system: B. subtilis 168
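Throughout, for Bliss interaction score (quartile over a dose matrix): first quartile when negative (synergy) and third quartile when positive (antagonism).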

CCN(CC)CCOC(=O)c1ccc(N)cc1 [Procaine] + CN[C@@H]1[C@H](O)[C@H](NC)[C@H]2O[C@@]3(O)C(=O)C[C@@H](C)O[C@H]3O[C@@H]2[C@H]1O [Spectinomycin]
fitness
Settings | first compound 85.5 µg/mL | first compound 171 µg/mL | first compound 342 µg/mL
B. subtilis 168 [4], partner 2 µg/mL | 0.972 | 0.926 | 0.923
B. subtilis 168 [4], partner 4 µg/mL | 0.938 | 0.963 | 0.93
B. subtilis 168 [4], partner 8 µg/mL | 0.895 | 0.84 | 0.824
S. aureus DSM 20231 [3], partner 4 µg/mL | 0.959 | 0.931 | 0.914
S. aureus DSM 20231 [3], partner 8 µg/mL | 0.948 | 0.911 | 0.928
S. aureus DSM 20231 [3], partner 16 µg/mL | 0.82 | 0.848 | 0.868
S. aureus Newman [1], partner 4 µg/mL | 0.886 | 0.891 | 0.89
S. aureus Newman [1], partner 8 µg/mL | ≥ 1 | 0.968 | 0.962
S. aureus Newman [1], partner 16 µg/mL | 0.896 | 0.905 | 0.88
S. pneumoniae D39V [2], partner 4 µg/mL | ≥ 1 | 0.973 | 0.914
S. pneumoniae D39V [2], partner 8 µg/mL | 0.964 | 0.955 | 0.929

fitness, one replicate
Settings | first compound 85.5 µg/mL | first compound 171 µg/mL | first compound 342 µg/mL
S. aureus DSM 20231 [3], partner 32 µg/mL | 0.744 | 0.724 | 0.813
S. aureus DSM 20231 [3], partner 64 µg/mL | 0.0918 | 0.0696 | 0.107
S. aureus Newman [1], partner 32 µg/mL | 0.678 | 0.652 | 0.629
S. aureus Newman [1], partner 64 µg/mL | 0.139 | 0.132 | 0.147
S. pneumoniae D39V [2], partner 16 µg/mL | 0.866 | 0.857 | 0.849

Settings | Bliss interaction score
B. subtilis 168 [8] | -0.0468
S. aureus DSM 20231 [7] | 0.0496
S. aureus Newman [5] | 0.0891
S. pneumoniae D39V [6] | 0.0382

CCN(CC)CCOC(=O)c1ccc(N)cc1 [Procaine] + COc1ccc(C[C@H](N)C(=O)N[C@H]2[C@@H](O)[C@H](n3cnc4c(N(C)C)ncnc43)O[C@@H]2CO)cc1 [Puromycin]
fitness
Settings | first compound 85.5 µg/mL | first compound 171 µg/mL | first compound 342 µg/mL
B. subtilis 168 [4], partner 0.39 µg/mL | 0.931 | 0.964 | 0.899
B. subtilis 168 [4], partner 0.78 µg/mL | 0.935 | 0.913 | 0.896
B. subtilis 168 [4], partner 1.56 µg/mL | 0.934 | 0.967 | 0.958
S. aureus DSM 20231 [3], partner 0.39 µg/mL | 0.996 | ≥ 1 | 0.916
S. aureus DSM 20231 [3], partner 0.78 µg/mL | ≥ 1 | ≥ 1 | ≥ 1
S. aureus DSM 20231 [3], partner 1.56 µg/mL | 0.994 | ≥ 1 | ≥ 1
S. aureus Newman [1], partner 0.39 µg/mL | ≥ 1 | ≥ 1 | ≥ 1
S. aureus Newman [1], partner 0.78 µg/mL | ≥ 1 | 0.977 | 0.936
S. aureus Newman [1], partner 1.56 µg/mL | ≥ 1 | ≥ 1 | ≥ 1
S. pneumoniae D39V [2], partner 1 µg/mL | 0.974 | 0.951 | 0.958
S. pneumoniae D39V [2], partner 2 µg/mL | 0.948 | 0.966 | 0.955
S. pneumoniae D39V [2], partner 4 µg/mL | 0.789 | 0.831 | 0.814

fitness, S. aureus DSM 20231 [3], one replicate
Settings | first compound 85.5 µg/mL | first compound 171 µg/mL | first compound 342 µg/mL
partner 3.12 µg/mL | 0.86 | 0.879 | ≥ 1
partner 6.24 µg/mL | 0.592 | 0.646 | 0.618

Settings | Bliss interaction score
B. subtilis 168 [8] | 0.0785
S. aureus DSM 20231 [7] | 0.047
S. aureus Newman [5] | 0.063
S. pneumoniae D39V [6] | 0.0736

CCN(CC)CCOC(=O)c1ccc(N)cc1 [Procaine] + Cc1cc(NS(=O)(=O)c2ccc(N)cc2)no1 [Sulfamethoxazol]
fitness
Settings | B. subtilis 168 [4] | S. aureus DSM 20231 [3] | S. aureus Newman [1] | S. pneumoniae D39V [2]
first compound 85.5 µg/mL, partner 1 µg/mL | 0.909 | 0.976 | 0.999 | 0.991
first compound 85.5 µg/mL, partner 2 µg/mL | 0.88 | 0.979 | 0.984 | 0.982
first compound 85.5 µg/mL, partner 4 µg/mL | 0.905 | 0.999 | 0.959 | 0.924
first compound 171 µg/mL, partner 1 µg/mL | 0.865 | 0.992 | 0.99 | 0.979
first compound 171 µg/mL, partner 2 µg/mL | 0.836 | ≥ 1 | 0.981 | ≥ 1
first compound 171 µg/mL, partner 4 µg/mL | 0.936 | ≥ 1 | 0.937 | 0.923
first compound 342 µg/mL, partner 1 µg/mL | 0.88 | 0.944 | – | 0.979
first compound 342 µg/mL, partner 2 µg/mL | 0.78 | ≥ 1 | – | 0.974
first compound 342 µg/mL, partner 4 µg/mL | 0.918 | ≥ 1 | – | 0.908

fitness, one replicate
Settings | first compound 85.5 µg/mL | first compound 171 µg/mL | first compound 342 µg/mL
B. subtilis 168 [4], partner 0.5 µg/mL | 0.971 | 0.908 | 0.963
S. aureus Newman [1], partner 8 µg/mL | 0.88 | 0.892 | 0.934

Settings | Bliss interaction score
B. subtilis 168 [8] | -0.0492
S. aureus DSM 20231 [7] | 0.0626
S. aureus Newman [5] | 0.0323
S. pneumoniae D39V [6] | 0.0407

Cn1nnc(-c2ccc(-c3ccc(N4C[C@H](CO)OC4=O)cc3F)cn2)n1 [Tedizolid]
fitness
Settings | 0.0312 µg/mL | 0.0625 µg/mL | 0.125 µg/mL | 0.25 µg/mL | 0.5 µg/mL
B. subtilis 168 [4] | 0.943 | 0.901 | 0.643 | – | –
S. aureus DSM 20231 [3] | – | 0.923 | 0.809 | 0.229 | –
S. aureus Newman [1] | – | 0.936 | 0.859 | 0.434 | –
S. pneumoniae D39V [2] | – | – | 0.719 | 0.416 | 0.168

Settings | MIC [µg/mL]
B. subtilis 168 [12] | 0.5 (≈ 1.35 µM)
S. aureus DSM 20231 [11] | 0.3 (≈ 0.81 µM)
S. aureus Newman [9] | 0.3 (≈ 0.81 µM)
S. pneumoniae D39V [10] | 0.125 (≈ 0.338 µM)
